Results from patent US8722864B2 (Nutek Pharma Ltd., priority 2010, dated 2014).
Where “and” joins values, the source holds several entries; their conditions need not be identical. Equal values may be shown once.

Assays:
[1] = Water (D2O) solubility by 1H NMR against DSS standard; type: physicochemical; details: for solubility at 3 days: water, thermodynamic from solid
Protocol: The method use involved stirring the sample in D2O for a period of 3 days, followed by filtration using a 0.2μ syringe filter. A measured volume of this saturated solution was diluted with a standard solution of DSS in D2O, and a ^1H NMR was taken. Integration of the DSS peaks compared to that of the analog would allow for the determination of its concentration, and thus the concentration of the saturated solution.

[2] = Solution stability (hydrolysis) in phosphate-buffered D2O at pD 5, 6, 7 monitored by 1H NMR; type: physicochemical; details: for stability to the pD's (in words): pD 5, 6, 7 in D2O; for Time to % hydrolysis t10% / Time to % hydrolysis t25% / Time to % hydrolysis t50%: 23° C.; for change in 1H NMR spectra: after 167 days, pD 5, 6, 7
Protocol: 10 mL (11.07 g) D2O was placed in 3 separate vials with a stir bar and 0.002 moles (0.272 g) monobasic potassium phosphate (KH2PO4) was added to each. With the pD metered, NaOD/D2O was added drop-wise to each to adjust the pD's to 5.0, 6.0, and 7.0. Each of these solutions was gently boiled before use. Thus each vial contained […] phosphate buffered solution. […] The sample was sterilized by heating for 10 seconds, and after it had cooled down to ambient temperature (about 1 minute), 0.3 mL of one of the 0.2 mM 3 buffered solutions was added. The 0.6 mL sample was then placed in a sterilized NMR tube and the tube sealed and labeled. Each of the samples was stored at 23° C. protected from the light and monitored by ^1H NMR (64 scans for each sample) periodically.

[3] = rat, in vivo, iv; for AUCinf/AUClast of the pro-drug: male, Sprague-Dawley
in vivo = details: male, Sprague-Dawley, rat, iv
[4] = water; cited from earlier work
[5] = Pharmacokinetics after intravenous administration in male Sprague-Dawley rats; details: for mean concentration of acetaminophen in rat plasma or blood: 66 μmol/kg nominal, plasma (blood for 18, 19);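 on all read-outs here: rats fasted overnight before dosing and fed about 4 h afterwards, with serial blood sampled through a carotid artery catheter at each time point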
[6] = stirred 3 days in D2O, 0.2 μ filtered
[7] = acetaminophen analyte after IV dose of acetaminophen or pro-drug, rat

Molecule	relative molar solubility [1]	solubility at 3 days [1]	change in 1H NMR spectra [2]	AUCinf/AUClast of the pro-drug [3] [%]	AUC of the pro-drug (in words) [3]	half-lives of the pro-drug (in words) [3]	AUC(0-inf) (in vivo) [µM·h]	AUC(0-t) (in vivo) [µM·h]	C0 (in vivo) [µM]	MRT inf (in vivo) [min]	Vd (in vivo) [L/kg]	clearance (in vivo) [mL/min/kg]	half-life (in vivo) [min]	further results
CC(=O)Nc1ccc(O[C@H]2O[C@H](CO)[C@@H](O[C@H]3O[C@H](CO)[C@@H](O)[C@H](O)[C@H]3O)[C@H](O)[C@@H]2O)cc1 [compound 5, 1-(4-acetaminophenoxy) 2-epi maltose]	>14	> 621000 µg/mL and > 1.3e+06 µM	no change	106	high	relatively high	1.69	1.57	2.49	39.2	26.8	759	79.2	solubility (in words) [1]: highest solubility
CC(=O)Nc1ccc(O[C@H]2O[C@H](CO)[C@@H](O)[C@H](O)[C@@H]2O)cc1 [compound 8, 1-(4′-acetamidophenoxy) mannose]	1.8	51000 µg/mL and 164000 µM	no change	100	low		44.9	44.9	336	14.2	0.349	24.7	39.5	
CC(=O)Nc1ccc(O[C@H]2O[C@H](COC(C)=O)[C@@H](O)[C@H](O)[C@@H]2O)cc1 [compound 15]	5.6	203000 µg/mL and 570000 µM		100	low		14.2	14.2	95.8	10.2	0.8	78.7	13.2	
CC(=O)Nc1ccc(O[C@H]2O[C@H](COC(=O)CCC(=O)O)[C@@H](O)[C@H](O)[C@@H]2O)cc1 [compound 20]				100	high	relatively high	51.9	51.8	218	25.2	0.549	22.7	123	
CC(=O)Nc1ccc(O[C@H]2O[C@H](C)[C@@H](O)[C@H](O)[C@@H]2O)cc1 [compound 23, 1-(4′-acetamidophenoxy)-6-deoxymannose]	2.1	60000 µg/mL and 202000 µM		100	high	relatively high	44.1	44	123	52.7	1.58	24.9	116	
acetaminophen			no change											D2O solubility (mM) [1, 6]: 95 mM; D2O solubility (mg/mL) [1, 6]: 13 mg/mL; literature value of acetaminophen's solubility [4]: 14 mg/mL; mean concentration of acetaminophen in rat plasma or blood ([5]; 2 min after IV dose of acetaminophen or pro-drug): 133.854 µM; mean concentration of acetaminophen in rat plasma or blood ([5]; 5 min after IV dose of acetaminophen or pro-drug): 89.75 µM; mean concentration of acetaminophen in rat plasma or blood ([5]; 0.250 h after IV dose of acetaminophen or pro-drug): 45.118 µM; mean concentration of acetaminophen in rat plasma or blood ([5]; 0.500 h after IV dose of acetaminophen or pro-drug): 23.661 µM; mean concentration of acetaminophen in rat plasma or blood ([5]; 2.00 h after IV dose of acetaminophen or pro-drug): 0.823 µM; mean concentration of acetaminophen in rat plasma or blood ([5]; 4.00 h after IV dose of acetaminophen or pro-drug): 0.528 µM; mean concentration of acetaminophen in rat plasma or blood ([5]; 6.00 h after IV dose of acetaminophen or pro-drug): 0.237 µM; mean concentration of acetaminophen in rat plasma or blood ([5]; 8.00 h after IV dose of acetaminophen or pro-drug): 0.108 µM; AUCinf of acetaminophen [5, 7]: 41.231 µM·h; AUCinf/AUClast of acetaminophen [5, 7]: 100%; AUClast of acetaminophen [5, 7]: 41.031 µM·h; MRTinf of acetaminophen [5, 7]: 39.7 min; Vdss of acetaminophen [5, 7]: 1.06 L/kg; t1/2 of acetaminophen from the pro-drug [5, 7]: 148 min; C0 ([5]; read-out: C0 of acetaminophen, acetaminophen analyte after IV dose of acetaminophen or pro-drug, extrapolated to time 0): 175 µM

The next lines start with results.

relative molar solubility [1]	solubility at 3 days [1]	change in 1H NMR spectra [2]	AUCinf/AUClast of the pro-drug [3] [%]	AUC of the pro-drug (in words) [3]	half-lives of the pro-drug (in words) [3]	AUC(0-inf) (in vivo) [µM·h]	AUC(0-t) (in vivo) [µM·h]	C0 (in vivo) [µM]	MRT inf (in vivo) [min]	Vd (in vivo) [L/kg]	clearance (in vivo) [mL/min/kg]	half-life (in vivo) [min]	Molecule	further results
0.6	14000 µg/mL and 53000 µM												CC(=O)Nc1ccc(O[C@@H]2C=C[C@H](O)[C@@H](CO)O2)cc1 [compound 1, N-(4-((2R,5S,6R)-5-hydroxy-6-(hydroxymethyl)-5,6-dihydro-2H-pyran-2-yloxy)phenyl)acetamide]	stability to the pD's (in words) [2]: least stable; Time to % hydrolysis t10% ([2]; pD 5, D2O): 0.3 days; Time to % hydrolysis t25% ([2]; pD 5, D2O): 0.8 days; Time to % hydrolysis t50% ([2]; pD 5, D2O): 2.0 days; Time to % hydrolysis t10% ([2]; pD 6, D2O): 2.25 days; Time to % hydrolysis t25% ([2]; pD 6, D2O): 6.25 days; Time to % hydrolysis t50% ([2]; pD 6, D2O): 17 days; Time to % hydrolysis t10% ([2]; pD 7, D2O): 5.5 days; Time to % hydrolysis t25% ([2]; pD 7, D2O): 26 days; Time to % hydrolysis t50% ([2]; pD 7, D2O): 70 days
0.3	9000 µg/mL and 31000 µM												CC(=O)Nc1ccc(O[C@@H]2CCC(O)[C@@H](CO)O2)cc1 (some centres unmarked) [compound 12, 1-(4′-acetamidophenoxy) 2,3-dideoxy glucose]	stability to the pD's (in words) [2]: a lot of instability; Time to % hydrolysis t10% ([2]; pD 5, D2O): 7 days; Time to % hydrolysis t25% ([2]; pD 5, D2O): 20 days; Time to % hydrolysis t50% ([2]; pD 5, D2O): 58 days; Time to % hydrolysis t10% ([2]; pD 6, D2O): 48 days
0.81	30000 µg/mL and 77000 µM		100	low		3.31	3.3	43.1	4.56	1.56	345	3.13	CCCC(=O)OC[C@H]1O[C@H](Oc2ccc(NC(C)=O)cc2)[C@@H](O)[C@@H](O)[C@@H]1O [compound 18, 1-(4′-acetamidophenoxy)-6-O-butyrylmannose]	
0.43	16000 µg/mL and 41000 µM		100	low		3.68	3.68	31.1	8.7	1.77	203	14.6	CC(=O)Nc1ccc(O[C@H]2O[C@H](COC(=O)C(C)C)[C@@H](O)[C@H](O)[C@@H]2O)cc1 [compound 19, 1-(4′-acetamidophenoxy)-6-O-isobutyrylmannose]	
